Measurements published in US10369138B2, “Monobactam organic compounds for the treatment of bacterial infections” (Novartis AG, priority 2014, dated 2019).
≈ marks a conversion by molar mass, not a printed value.

Legend:
E. coli containing KPC-2 = test: MIC by broth microdilution, E. coli containing KPC-2 (Ec KPC2 Iso); type: cell-based; conditions: Escherichia coli, read-out: Ec KPC2 Iso (MIC), E. coli containing KPC-2 (carbapenemase from Klebsiella pneumoniae)
In short: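 Host E. coli BW25113 pspB carrying multicopy pBAD18-kan plasmid with constitutive TEM-promoter KPC-2 expression (periplasmic signal sequence); broth microdilution per CLSI in cation-adjusted Mueller-Hinton broth, inoculum ~5×10^5 CFU/mL, compounds twofold serially diluted from DMSO masters (10% DMSO in dilution series added).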

E. coli strain 25922 = test: MIC by broth microdilution, E. coli strain 25922; type: cell-based; conditions: Escherichia coli, 25922, E. coli strain 25922; read-out: Ec 25922 (MIC)
In short: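 CLSI broth microdilution in cation-adjusted Mueller-Hinton broth, inoculum about 5×10^5 CFU/mL, 10% DMSO from the diluted series, 20 h at 35-37° C. MIC is the lowest concentration preventing visible growth, read by eye and at 600 nm.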

Structure (SMILES)	MIC (E. coli containing KPC-2)	MIC (E. coli strain 25922)
Nc1nc(/C(=N/OC2(C(=O)O)CC2)C(=O)N[C@@H]2C(=O)N(S(=O)(=O)O)[C@@H]2Cn2ncc(CNC3CCNCC3)n2)cs1 [Example 112, 1-(((Z)-(1-(2-aminothiazol-4-yl)-2-oxo-2-(((3S,4R)-2-oxo-4-((4-((piperidin-4-ylamino)methyl)-2H-1,2,3-triazol-2-yl)methyl)-1-sulfoazetidin-3-yl)amino)ethylidene)amino)oxy)cyclopropanecarboxylic acid]	0.5 µg/mL (≈ 0.816 µM)	0.5 µg/mL (≈ 0.816 µM)
N=C(N)NC[C@@H]1CN(C[C@@H]2[C@H](NC(=O)/C(=N\OC3(C(=O)O)CC3)c3csc(N)n3)C(=O)N2S(=O)(=O)O)C(=O)O1 [Example 26, 1-(((Z)-(1-(2-aminothiazol-4-yl)-2-(((2R,3S)-2-(((R)-5-(guanidinomethyl)-2-oxooxazolidin-3-yl)methyl)-4-oxo-1-sulfoazetidin-3-yl)amino)-2-oxoethylidene)amino)oxy)-cyclopropanecarboxylic acid]	≤ 0.06 µg/mL	0.125 µg/mL (≈ 0.212 µM)
CC(C)(O/N=C(\C(=O)N[C@@H]1C(=O)N(S(=O)(=O)O)[C@@H]1CN1C[C@H](CNC(=N)N)OC1=O)c1csc(N)n1)C(=O)O [Example 59, 2-(((Z)-(1-(2-aminothiazol-4-yl)-2-(((2R,3S)-2-(((S)-5-(guanidinomethyl)-2-oxooxazolidin-3-yl)methyl)-4-oxo-1-sulfoazetidin-3-yl)amino)-2-oxoethylidene)amino)oxy)-2-methylpropanoic acid]	16 µg/mL (≈ 27 µM)	16 µg/mL (≈ 27 µM)
CC(C)(O/N=C(\C(=O)N[C@@H]1C(=O)N(S(=O)(=O)O)[C@@H]1CN1CC[C@@H](N)C1=O)c1csc(N)n1)C(=O)O [Example 86, 2-(((Z)-(2-(((2R,3S)-2-(((R)-3-amino-2-oxopyrrolidin-1-yl)methyl)-4-oxo-1-sulfoazetidin-3-yl)amino)-1-(2-aminothiazol-4-yl)-2-oxoethylidene)amino)oxy)-2-methylpropanoic acid]	1 µg/mL (≈ 1.87 µM)	1 µg/mL (≈ 1.87 µM)
CC(C)(O/N=C(\C(=O)N[C@@H]1C(=O)N(S(=O)(=O)O)[C@@H]1CN1CC[C@H](NC(=N)N)C1=O)c1csc(N)n1)C(=O)O [Example 80, 2-(((Z)-(1-(2-aminothiazol-4-yl)-2-(((2R,3S)-2-(((S)-3-guanidino-2-oxopyrrolidin-1-yl)methyl)-4-oxo-1-sulfoazetidin-3-yl)amino)-2-oxoethylidene)amino)oxy)-2-methylpropanoic acid]	4 µg/mL (≈ 6.95 µM)	4 µg/mL (≈ 6.95 µM)
CC(C)(O/N=C(\C(=O)N[C@@H]1C(=O)N(S(=O)(=O)O)[C@@H]1Cn1ncc(CNC(=N)N)n1)c1csc(N)n1)C(=O)O [Example 53, 2-(((Z)-(1-(2-aminothiazol-4-yl)-2-(((2R,3S)-2-((4-(guanidinomethyl)-2H-1,2,3-triazol-2-yl)methyl)-4-oxo-1-sulfoazetidin-3-yl)amino)-2-oxoethylidene)amino)oxy)-2-methylpropanoic acid]	1 µg/mL (≈ 1.74 µM)	1 µg/mL (≈ 1.74 µM)
Cc1nnnn1C[C@@H]1[C@H](NC(=O)/C(=N\OC(C)(C)C(=O)O)c2csc(N)n2)C(=O)N1S(=O)(=O)O [Example 8, 2-(((Z)-(1-(2-aminothiazol-4-yl)-2-(((2R,3S)-2-((5-methyl-1H-tetrazol-1-yl)methyl)-4-oxo-1-sulfoazetidin-3-yl)amino)-2-oxoethylidene)amino)oxy)-2-methylpropanoic acid]	2 µg/mL (≈ 3.86 µM)	2 µg/mL (≈ 3.86 µM)
CC(C)(O/N=C(\C(=O)N[C@@H]1C(=O)N(S(=O)(=O)O)[C@@H]1Cn1cncn1)c1csc(N)n1)C(=O)O [Example 9, 2-(((Z)-(2-(((2R,3S)-2-((1H-1,2,4-triazol-1-yl)methyl)-4-oxo-1-sulfoazetidin-3-yl)amino)-1-(2-aminothiazol-4-yl)-2-oxoethylidene)amino)oxy)-2-methylpropanoic acid]	1 µg/mL (≈ 1.99 µM)	1 µg/mL (≈ 1.99 µM)
NCCCNCc1cnn(C[C@@H]2[C@H](NC(=O)/C(=N\OC3(C(=O)O)CC3)c3csc(N)n3)C(=O)N2S(=O)(=O)O)n1 [Example 90, 1-(((Z)-(2-(((2R,3S)-2-((4-(((3-aminopropyl)amino)methyl)-2H-1,2,3-triazol-2-yl)methyl)-4-oxo-1-sulfoazetidin-3-yl)amino)-1-(2-aminothiazol-4-yl)-2-oxoethylidene)amino)oxy)cyclopropanecarboxylic acid]	0.25 µg/mL (≈ 0.426 µM)	0.25 µg/mL (≈ 0.426 µM)
NCCCCNCc1cnn(C[C@@H]2[C@H](NC(=O)/C(=N\OC3(C(=O)O)CC3)c3csc(N)n3)C(=O)N2S(=O)(=O)O)n1 [Example 118, 1-(((Z)-(2-(((2R,3S)-2-((4-(((4-aminobutyl)amino)methyl)-2H-1,2,3-triazol-2-yl)methyl)-4-oxo-1-sulfoazetidin-3-yl)amino)-1-(2-aminothiazol-4-yl)-2-oxoethylidene)amino)oxy)cyclopropanecarboxylic acid]	0.25 µg/mL (≈ 0.416 µM)	0.5 µg/mL (≈ 0.832 µM)
CC(C)(O/N=C(\C(=O)N[C@@H]1C(=O)N(S(=O)(=O)O)[C@@H]1Cn1cc(CNC(=O)C[N+](C)(C)C)nn1)c1csc(N)n1)C(=O)O [Example 43, (3S,4R)-3-((Z)-2-(2-aminothiazol-4-yl)-2-(((2-carboxypropan-2-yl)oxy)imino)acetamido)-2-oxo-4-((4-((2-(trimethylammonio)acetamido)methyl)-1H-1,2,3-triazol-1-yl)methyl)azetidine-1-sulfonate]	2 µg/mL	2 µg/mL
NCC1CN(C(=O)OCc2cnn(C[C@@H]3[C@H](NC(=O)/C(=N\OC4(C(=O)O)CC4)c4csc(N)n4)C(=O)N3S(=O)(=O)O)n2)C1 [Example 149, 1-(((Z)-(2-(((2R,3S)-2-((4-(((3-(aminomethyl)azetidine-1-carbonyl)oxy)methyl)-2H-1,2,3-triazol-2-yl)methyl)-4-oxo-1-sulfoazetidin-3-yl)amino)-1-(2-aminothiazol-4-yl)-2-oxoethylidene)amino)oxy)cyclopropanecarboxylic acid]	0.5 µg/mL (≈ 0.778 µM)	0.5 µg/mL (≈ 0.778 µM)
CC(NC(=N)NCCCN)c1cnn(C[C@@H]2[C@H](NC(=O)/C(=N\OC3(C(=O)O)CC3)c3csc(N)n3)C(=O)N2S(=O)(=O)O)n1 (stereo partly drawn) [Example 145, 1-(((Z)-(2-(((2R,3S)-2-((4-(1-(3-(3-aminopropyl)guanidino)ethyl)-2H-1,2,3-triazol-2-yl)methyl)-4-oxo-1-sulfoazetidin-3-yl)amino)-1-(2-aminothiazol-4-yl)-2-oxoethylidene)amino)oxy)cyclopropanecarboxylic acid]	0.5 µg/mL (≈ 0.778 µM)	0.5 µg/mL (≈ 0.778 µM)
CC(C)(O/N=C(\C(=O)N[C@@H]1C(=O)N(S(=O)(=O)O)[C@@H]1Cn1ncnc1CNC(=N)N)c1csc(N)n1)C(=O)O [Example 13, 2-(((Z)-(1-(2-aminothiazol-4-yl)-2-(((2R,3S)-2-((5-(guanidinomethyl)-1H-1,2,4-triazol-1-yl)methyl)-4-oxo-1-sulfoazetidin-3-yl)amino)-2-oxoethylidene)amino)oxy)-2-methylpropanoic acid]	32 µg/mL (≈ 55.8 µM)	16 µg/mL (≈ 27.9 µM)
Nc1nc(/C(=N/OC2(C(=O)O)CC2)C(=O)N[C@@H]2C(=O)N(S(=O)(=O)O)[C@@H]2CN2CCNC2=O)cs1 [Example 108, 1-(((Z)-(1-(2-aminothiazol-4-yl)-2-oxo-2-(((3S,4R)-2-oxo-4-((2-oxoimidazolidin-1-yl)methyl)-1-sulfoazetidin-3-yl)amino)ethylidene)amino)oxy)cyclopropanecarboxylic acid]	≤ 0.06 µg/mL	0.125 µg/mL (≈ 0.242 µM)
